The nature of data set [1]: Serum binding determination by ultrafiltration and HPLC. The data set is classed as in vitro ADME. As to conditions: human, serum, % of compound bound to serum as determined by HPLC. The protocol: The more accurate measurement of binding of selected cephalosporin compounds was performed using HPLC as described below. […] Serum is placed in a shaking water bath preheated to 37 ± 2 °C for 5 to 10 minutes to heat serum to 37 °C. Serum pH is measured and recorded, while serum is 37 °C using pH paper. Measurements are taken twice, 3 minutes apart. […] After blowing for several minutes, serum is heated to 37 °C and measurements are taken twice, 3 minutes apart using pH paper to determine the pH. Store at 4 °C. The serum is stable for 7 days. Always check the pH before each use. • 2. Before any centrifugation, the centrifuge temperature must be adjusted to 25 ± 2 °C. Preheat the centrifuge by spinning for 45 minutes at the same speed to be used in the assay (1900 g) with two tubes of water in the rotor and the temperature set to 25 °C. When the centrifuge stops immediately check the temperature of the tubes of water with a calibrated thermometer. The temperature of the tubes of water must be 25 ± 2 °C. […] Continue spinning and measuring the temperature and adjusting the setting until the temperature is 25 ± 2 °C. • 3. Prepare blank ultrafiltrate by pipetting blank pH 7.4 serum into an Amicon Centrifree Micropartition devices, centrifuge: fixed angle rotor, 1900 g, 25 °C for 20 minutes. Heat ultrafiltrate in a shaking water bath preheated to 37 °C. Measure ultrafiltrate pH and adjust to the pH of the serum (7.4 ± 0.2). • 4. Pipette 190 ul of blank ultrafiltrate into a set of labeled 1.7 mL polypropylene microfuge tubes for 3 of each level. Pipette 10 µL of the appropriate standard stock 50, 200, 1000 µg/mL to make standards 2.5, 10, and 50 µg/mL respectively. Vortex each tube well. One set of the standard samples are mixed 1:1 with 0.2 M acetic acid and injected onto the HPLC (MSTD). These samples are the membrane standards and will be used to compare to the other standards. Pipette 190 ul of ultrafiltrate and spike with 10 ul of whatever solution (e.g. water) the standards are prepared in to make the zero standard. • 5. Pipette 475 µL of blank heated pH 7.4 serum into a set of labeled 1.7 mL polypropylene microfuge tubes for 2 of each (Serum A and Serum B). Pipette 25 µL of the 1000 µg/mL standard stock into each tube, vortex each tube well to make serum standard 50 µg/mL. Remove 100 µL of serum and deproteinate with 200 µL 4% TCA while vortexing to make serum time 0 (serum 50, T0). Place serum tubes in a shaking water bath at 37 °C for 10 minutes. Pipet 100 µL of serum out and deproteinate with 200 µL 4% TCA, to make serum time 10 min (serum 50, T10). Pipet 200 ul serum standard 50 µg/mL into an ultrafiltration device, which is not treated with TCA, to determine free drug in samples (Rat Serum 50). • 6. Transfer serum and standard samples to labeled Amicon Centrifree Micropartition filters, and centrifuge: 1900 g, 25 °C for 10 minutes. The extracted serum samples (T0 and T 10) are spun down and supernatant is loaded into HPLC vials. • 7. 100 µL of ultrafiltrate sample and 100 µL of 0.2 M acetic acid were mixed together to stabilize the compound in ultrafiltrate. • 8. Transfer entire stabilized ultrafiltrate solution to a labeled autoinjector HPLC vial cap with Teflon septa, and inject on HPLC.
Peak height or area is used in a weighted linear regression.
High levels of binding to human serum proteins limits the concentration of compound available for antibacterial activity in the body.

The test system of a further data set is E. faecalis VanB (Van^R). In words: Broth microdilution MIC (NCCLS). In kind it is cell-based. As to conditions: Enterococcus faecalis, Mueller-Hinton Broth, 24 h at 35 °C. The protocol:
(§1) Compounds were evaluated for antimicrobial activity against a panel of bacterial strains using a broth microdilution assay performed as recommended by the NCCLS (1). The minimum inhibitory concentration (MIC) was defined as the lowest concentration of drug which prevented the growth of the bacteria. The following 16 organisms constituted the primary panel of evaluation:
(§2) For this primary panel, the assay was performed in Mueller-Hinton Broth (MHB) with a final bacterial inoculum of 5 x 10^5 CFU/mL (from an early-log phase culture) and a final volume of 100 µL. Control drugs, including imipenem, vancomycin, Penicillin G, dicloxacillin (vs. MSSA ATCC29213 only), and new compounds were prepared at a concentration equivalent to 2-fold the desired final concentration. Dilution of compounds were prepared directly in the plates by serial 2-fold dilution using a multichannel pipette. Positive and negative growth control were included in each plate.
(§3) The bacterial inocula were prepared as follows. For each strain one isolated colony was used to inoculate a volume of 8 mL of Mueller-Hinton broth and these cultures were incubated overnight (20h) at 35 °C in a shaking incubator. At the exception of Enterococcus strains, culture were then diluted 1:10 and allowed to grow for an additional one hour at 35 °C in a shaking incubator. The inocula were prepared by diluting the early log-phase (1h) cultures 1:1000 with fresh Mueller-Hinton broth. E. faecium and E. faecalis were prepared by diluting overnight cultures 1:333 and 1:666, respectively, with fresh Mueller-Hinton broth . A volume of 50 µL of the inocula was added to each well. […] The exact inocula were determined by applying […] of 10-fold serial dilution of the bacterial suspensions on TSA. After overnight incubation at 35 °C, colony forming units were manually counted.
(§4) Microtiter plates were incubated during 24 h at 35 °C and were read using a microtiterplate reader (Molecular Devices) at 650 nm as well as by visual observation using a microtiterplate reading mirror.

The next data set concerns E. faecium VanA (Van^R). Kind of data set: Broth microdilution MIC (NCCLS). As to conditions: Enterococcus faecium, Mueller-Hinton Broth, 24 h at 35 °C. In kind it is cell-based. As to the method:
as §1, §2, §3, §4

Data set [2] relates to S. aureus Spain #356 (Meth^R). Kind of data set: Broth microdilution MIC (NCCLS). The data set is classed as cell-based. As to conditions: Staphylococcus aureus, Mueller-Hinton Broth, 24 h at 35 °C. The protocol: as §1, §2, §3, §4
Data set [3] deals with S. aureus ATCC 33593 (Meth^R). In words: Broth microdilution MIC (NCCLS). In kind it is cell-based. As to conditions: Staphylococcus aureus, ATCC33593, Mueller-Hinton Broth, 24 h at 35 °C. The protocol: as §1, §2, §3, §4
Data set [4] deals with S. aureus 76 (Meth^R)(lac^+). Kind of data set: Broth microdilution MIC (NCCLS). The data set is classed as cell-based. As to conditions: Staphylococcus aureus, Mueller-Hinton Broth, 24 h at 35 °C. As to the method: as §1, §2, §3, §4
A further data set has as its system P. aeruginosa ATCC 27853. Kind of data set: Broth microdilution MIC (NCCLS). In kind it is cell-based. As to conditions: Pseudomonas aeruginosa, ATCC27853, Mueller-Hinton Broth, 24 h at 35 °C. The protocol: as §1, §2, §3, §4
Data set [5] concerns S. haemolyticus 05 (Meth^R). In words: Broth microdilution MIC (NCCLS). As to conditions: Staphylococcus haemolyticus, Mueller-Hinton Broth, 24 h at 35 °C. The data set is classed as cell-based. As to the method: as §1, §2, §3, §4
A further data set has as its system E. coli ATCC25992. In words: Broth microdilution MIC (NCCLS). In kind it is cell-based. As to conditions: Escherichia coli, Mueller-Hinton Broth, 24 h at 35 °C. The protocol: as §1, §2, §3, §4
Data set [6] has as its system S. aureus ATCC 13709 (Meth^S). In words: Broth microdilution MIC (NCCLS). In kind it is cell-based. As to conditions: Staphylococcus aureus, ATCC13709, Mueller-Hinton Broth, 24 h at 35 °C. As to the method:
as §1, §2, §3, §4

≈ marks a conversion by molar mass, not a printed value. A value given as a limit tells only on which side of the number the result lay.

As to `NCCSCc1ncccc1SC1=C(C(=O)O)N2C(=O)[C@@H](NC(=O)/C(=N\O)c3nsc(N)n3)[C@H]2SC1` [Cmpd 2, (7R)-7-[(Z)-2-(5-amino-1,2,4-thiadiazol-3-yl)-2-(hydroxyimino)acetamido]-3-[2-(2-aminoethylthiomethyl)pyrid-3-ylthio]-3-cephem-4-carboxylic acid], in [1], the free fraction (fraction unbound) was no less than 0.2. Moreover, the MIC is 0.5 µg/mL (≈ 0.879 µM) against E. faecalis VanB (Van^R); 2 µg/mL (≈ 3.52 µM) in the data set on E. faecium VanA (Van^R); 1 µg/mL (≈ 1.76 µM) in data set [2]; 1 µg/mL (≈ 1.76 µM) in data set [3]; 1 µg/mL (≈ 1.76 µM) in data set [4]; greater than 32 µg/mL with P. aeruginosa ATCC 27853. Further, the minimum inhibitory concentration (MIC) in data set [5] is 2 µg/mL (≈ 3.52 µM); against E. coli ATCC25992, 1 µg/mL (≈ 1.76 µM).
`NCCSCc1ncccc1SC1=C(C(=O)O)N2C(=O)[C@@H](NC(=O)/C(=N\O)c3nc(N)sc3Cl)[C@H]2SC1` [Cmpd 1, (7R)-7-[(Z)-2-(2-amino-5-chlorothiazol-4-yl)-2-(hydroxyimino)acetamido]-3-[2-(2-aminoethylthiomethyl)pyrid-3-ylthio]-3-cephem-4-carboxylic acid] showed a fraction unbound in [1] of 0.1. Further, the minimum inhibitory concentration (MIC) against E. faecalis VanB (Van^R) is 0.13 µg/mL (≈ 0.216 µM); against E. faecium VanA (Van^R), 1 µg/mL (≈ 1.66 µM); in data set [2], 1 µg/mL (≈ 1.66 µM); in data set [6], 0.13 µg/mL (≈ 0.216 µM); in [3], 1 µg/mL (≈ 1.66 µM); in data set [4], 1 µg/mL (≈ 1.66 µM). Moreover, the MIC against P. aeruginosa ATCC 27853 amounted to 32 µg/mL (≈ 53.1 µM); in data set [5] it was 1 µg/mL (≈ 1.66 µM); in the data set with E. coli ATCC25992 it was 4 µg/mL (≈ 6.64 µM).
`N=C(N)NCCSCc1ncccc1SC1=C(C(=O)O)N2C(=O)[C@@H](NC(=O)/C(=N\O)c3nc(N)sc3Cl)[C@H]2SC1` [Cmpd 2-S, (7R)-7-[(Z)-2-(2-amino-5-chlorothiazol-4-yl)-2-(hydroxyimino)acetamido]-3-[2-(2-guanidinoethylthiomethyl)pyrid-3-ylthio]-3-cephem-4-carboxylic acid] had a fraction unbound in [1] of 0.17. In addition, the minimum inhibitory concentration (MIC) against E. faecalis VanB (Van^R) amounted to 0.06 µg/mL (≈ 0.0931 µM); in the data set on E. faecium VanA (Van^R), 0.5 µg/mL (≈ 0.776 µM); in data set [2], 0.5 µg/mL (≈ 0.776 µM); in data set [6], 0.06 µg/mL (≈ 0.0931 µM); in data set [3], 0.5 µg/mL (≈ 0.776 µM); in data set [4], 0.5 µg/mL (≈ 0.776 µM). Further, the minimum inhibitory concentration (MIC) in the data set with P. aeruginosa ATCC 27853 was greater than 32 µg/mL; in [5], 1 µg/mL (≈ 1.55 µM); against E. coli ATCC25992, 4 µg/mL (≈ 6.21 µM).
In the case of `NCCSCc1ccncc1SC1=C(C(=O)O)N2C(=O)[C@@H](NC(=O)/C(=N\O)c3nc(N)sc3Cl)[C@H]2SC1` [Cmpd 3, (7R)-7-[(Z)-2-(2-amino-5-chlorothiazol-4-yl)-2-(hydroxyimino)acetamido]-3-[4-(2-aminoethylthiomethyl)pyrid-3-ylthio]-3-cephem-4-carboxylic acid], the unbound share (fraction unbound) in data set [1] is 0.1. Further, the MIC in the data set on E. faecalis VanB (Van^R) is 0.5 µg/mL (≈ 0.83 µM); against E. faecium VanA (Van^R), 2 µg/mL (≈ 3.32 µM); in data set [2], 1 µg/mL (≈ 1.66 µM); in data set [6] it was 0.13 µg/mL (≈ 0.216 µM); in data set [3], 1 µg/mL (≈ 1.66 µM); in data set [4] it was 1 µg/mL (≈ 1.66 µM). For the same compound, the MIC in the data set on P. aeruginosa ATCC 27853 stood at 32 µg/mL (≈ 53.1 µM); in data set [5], 2 µg/mL (≈ 3.32 µM); against E. coli ATCC25992 it was 4 µg/mL (≈ 6.64 µM).
In data set [1], `N=C(N)NCCSCc1ncccc1SC1=C(C(=O)O)N2C(=O)[C@@H](NC(=O)/C(=N\O)c3nsc(N)n3)[C@H]2SC1` [Cmpd 2-R, (7R)-7-[(Z)-2-(5-amino-1,2,4-thiadiazol-3-yl)-2-(hydroxyimino)acetamido]-3-[2-(2-guanidinoethylthiomethyl)pyrid-3-ylthio]-3-cephem-4-carboxylic acid] gave an unbound share (fraction unbound) of no less than 0.2. Moreover, the minimal inhibitory concentration (MIC) in the data set with E. faecium VanA (Van^R) was 1 µg/mL (≈ 1.64 µM); in data set [2], 1 µg/mL (≈ 1.64 µM); in data set [6] it was 0.13 µg/mL (≈ 0.213 µM); in data set [3] it was 1 µg/mL (≈ 1.64 µM); in [4], 1 µg/mL (≈ 1.64 µM); with P. aeruginosa ATCC 27853, greater than 32 µg/mL. Further, the minimum inhibitory concentration (MIC) in data set [5] was 2 µg/mL (≈ 3.27 µM); against E. coli ATCC25992 it was 1 µg/mL (≈ 1.64 µM).

(Values after patent EP1222194B1, “7-ACYLAMINO-3-HETEROARYLTHIO-3-CEPHEM CARBOXYLIC ACID ANTIBIOTICS AND PRODRUGS THEREOF” (priority 1999, dated 2001).)
